Laboratory results: publication PMC6154605, “Multi-Anti-Parasitic Activity of Arylidene Ketones and Thiazolidene Hydrazines against Trypanosoma cruzi and Leishmania spp” (Molecules : A Journal of Synthetic Chemistry and Natural …, 2017)
Where two headings read alike, the source gives them in different places.

What was measured:
[1] = tested on: T. cruzi epimastigotes, Tulahuen 2 strain (genotype TcVI); experiment: In vitro anti-T. cruzi activity, growth inhibition of epimastigotes; assay type: cell-based, Trypanosoma cruzi; conditions: for IC50: Trypanosoma cruzi, TULAHUEN; for Trypanocidal activity on T. cruzi in words: molecular stripping, epimastigotes; for SI J774.1/ T. cruzi: ratio IC50 mammalian cell / IC50 parasite (epimastigotes)
Description: For the in vitro anti-T. cruzi activity, we used epimastigotes of the Tulahuen 2 strain (genotype TcVI) grown in an axenic milieu (BHI-Tryptose). Cells from a 5–7-day-old culture were inoculated in fresh culture milieu to give an initial concentration of 1.00 × 10^6 cells/mL. The absorbance at 600 nm of the cells in culture was measured every day. At Day 5, the milieu was inoculated with different quantities of the compounds from a stock solution in DMSO (DMSO concentration in the culture milieu never exceeded 0.4%). The control was made in the presence of 0.4% DMSO and in the absence of compounds. Each concentration of compound was evaluated in duplicate. At Day 5, the absorbance of the culture was measured and related to the control. […] Each antiproliferative experiment was done in duplicate, and each concentration was tested in triplicate.

NCTC929 fibroblasts = experiment: Nonspecific cytotoxicity on fibroblasts, resazurin; assay type: cell-based; conditions: NCTC-929, 24 h; read-out: IC50 ± SD Fibroblast NCTC929
Description: (§1) To establish the selectivity of the compounds against the parasites, nonspecific cytotoxicity against mammalian cells, using J774.1 murine macrophages and fibroblast NCTC929, was studied for the most relevant derivatives. The selectivity indexes were calculated as the ratio between cytotoxicity for mammalian cells and the anti-parasitic activity (Table 2).
NCTC-Clone 929 were grown in minimal essential medium (Sigma) supplemented with 10% heat-inactivated FBS, penicillin G (100 U/mL) and streptomycin (100 µg/mL). Cell cultures were maintained at 37 °C in a humidified 5% CO2 atmosphere. The procedure for cell viability measurement was evaluated with resazurin by a colorimetric method. The cells were plated in 96 microtiter plates at 3.00 × 10^4 cells/well in 100 µL growth medium. The cells were grown overnight at 37 °C, 5% CO2. Thereafter, the medium was removed, and the compounds were added to 200 µL of medium for 24 h. After incubation, 20 µL of a 2 mM resazurin solution were added to each well. The plates were incubated for 3 h to allow optimal oxidation-reduction. The reduction of resazurin was determined by dual wavelength absorbance measurement at 490 and 595 nm. The background was subtracted. Each concentration was assayed three times. Medium and drug controls were used in each test as blanks.

[2] = tested on: L. infantum promastigotes; experiment: Leishmanicidal activity on promastigotes, resazurin; assay type: cell-based, Leishmania infantum; conditions: for IC50: 48 h, read-out: IC50 ± SD Promastigotes L. infantum; for SI NCTC/ L. infantum: ratio IC50 mammalian cell / IC50 parasite (promastigotes)
Excerpt: (§2) We initially selected compounds previously reported to have anti-T. cruzi activity from our chemical library to evaluate their leishmanicidal activity. […]. To evaluate their activity in Leishmania spp., we performed a phenotypic screening using the promastigote form of L. infantum (MHOM/FR/91/LEM-2259) and L. braziliensis ([…]) (Table 1A for the thiazolidenehydrazine derivate and Table 1B for the arylideneketones family).
(§3) A culture of L. braziliensis (MHOM/BR/75/M2904) and L. infantum (MHOM/FR/91/LEM2259V) was obtained from the Facultad de Farmacia (Universidad Complutense, Madrid, Spain). The maintenance of the strains, the form of cultivation and the isolation of the shape of the promastigote were performed following the procedures described by Roldos et al.. The promastigotes were grown at 22 °C in Schneider’s Drosophila medium supplemented with 20% FBS. The assay was performed using a modification of a previous method. Promastigotes (2 × 10^6 parasites/well) were cultivated in 96-well plastic plates. Compounds were dissolved in dimethylsulfoxide (DMSO). Different dilutions of the compounds with a final volume up to 200 µL were added. After 48 h at 26 °C, 20 µL of a 2 mM resazurin solution were added, and the oxidation-reduction was quantified at 570 and 600 nm. The solution of resazurin was prepared at 2.5 mM in phosphate buffered solution (PBS), pH 7.4, and filtered through 0.22-µm membranes prior to use. All tests were carried out in triplicate. Resazurin sodium salt was obtained from Sigma-Aldrich (St. Louis, MO, USA) and stored at 4 °C protected from light. The efficacy of each compound was estimated by calculating the IC50 values. Each antiproliferative experiment was done in duplicate, and each concentration was tested in triplicate.

[3] = tested on: J774.1 murine macrophages; experiment: Nonspecific cytotoxicity on macrophages, MTT; assay type: cell-based; conditions: J774.1, 48 h, read-out: IC50 ± SD Murine Macrophages
Description: as §1
J774.1 murine macrophage cells (ATCC, USA) were grown in DMEM culture milieu containing 4 mM L-glutamine and supplemented with 10% FCS. The cells were seeded in a 96-well plate (5.00 × 10^4 cells in 200 µL culture medium) and incubated at 37 °C in a 5% CO2 atmosphere for 48 h, to allow cell adhesion prior to drug testing. Afterwards, cells were exposed for 48 h to the compounds (25–400 μM) or the vehicle for control (0.4% DMSO), and additional controls (cells in medium) were used in each test. Cell viability was then assessed by measuring the mitochondria-dependent reduction of MTT (3-(4,5-dimethylthiazol-2-yl)-2,5-diphenyltetrazolium bromide) to formazan. For this purpose, MTT in sterile PBS (0.2% glucose), pH 7.4, was added to the macrophages to achieve a final concentration of 0.1 mg/mL, and the cells were incubated at 37 °C for 3 h. After removing the medium, formazan crystals were dissolved in 180 μL of DMSO and 20 μL of MTT buffer (0.1 M glycine, 0.1 M NaCl, 0.5 mM EDTA, pH 10.5), and the absorbance at 560 nm was measured. The IC50 was defined as the drug concentration at which 50% of the cells were viable, relative to the control (no drug added), and was determined by analysis using OriginLab8.5® sigmoidal regression (% of viable cells vs. the logarithm of the compound concentration). Tests were performed in triplicate.

[4] = tested on: L. braziliensis promastigotes; experiment: Leishmanicidal activity on promastigotes, resazurin; assay type: cell-based, Leishmania braziliensis; conditions: for IC50: 48 h, read-out: IC50 ± SD Promastigotes L. braziliensis; for SI NCTC/ L. braziliensis: ratio IC50 mammalian cell / IC50 parasite (promastigotes)
Excerpt: as §2, §3

zebrafish embryos = experiment: Zebrafish embryo toxicity test (LD50); conditions: for LD50 without chorion: dechorionated zebrafish embryos, 72 h incubation; for LD50 with chorion: zebrafish embryos with chorion
Description: […] Only embryos that were clearly undamaged after 60 min of observation were kept and subsequently used. Dechorionated embryos were further manipulated using flame-rounded tip glass Pasteur pipettes. […] In all cases, the embryos were incubated in system water with 1% DMSO (negative control) and the compound at different doses between 8 and 96 hpf. The treatment solution was changed daily. […] At selected time points, namely 24, 48, 72 and 96 hpf, embryotoxicity (= mortality) and morphological characteristics of the embryos were evaluated using a Nikon SMZ800 stereomicroscope. The embryos were evaluated for the presence and morphological development (as appropriate) of somites, tail detachment, eyes, heart beat and blood circulation. All individuals were evaluated at all time points.

[5] = Tulahuen 2 strain, read-out: IC50 ± SD Epimastigotes T. cruzi
[6] = Figure 4, molecular stripping of HIT1, read-out: Effect of structural change on trypanocidal activity (emoticon code)

C=CCn1c(-c2ccc(Cl)cc2)cs\c1=N/N=C/C=C/c1ccc(C)o1 [GAT0113A]
IC50 [1, 5]: 3 ± 0.5 µM | Trypanocidal activity on T. cruzi in words [1]: equipotent to the parent compound | SI J774.1/ T. cruzi [1]: 22 | IC50 (NCTC929 fibroblasts): 319 ± 16 µM | IC50 ([2]; Leishmania infantum): 8 ± 2 µM | SI NCTC/ L. infantum [2]: 40 | IC50 ([3]; Mus musculus): 66 ± 7 µM | IC50 ([4]; Leishmania braziliensis): 10 ± 1 µM | SI NCTC/ L. braziliensis [4]: 32 | melting point: 220 °C (dec.)

C(=C\c1ccco1)/C=N/N1CCN(Cc2ccccc2)CC1 [GAT1912, (E)-4-benzyl-N-((E)-3-(furan-2-yl)allylidene)piperazin-1-amine]
IC50 [1, 6]: > 25 µM | IC50 [1, 5]: > 25 µM | IC50 ([2]; Leishmania infantum): > 100 µM | IC50 ([4]; Leishmania braziliensis): > 100 µM | melting point: 145 to 147 °C

Glucantime [reference compound]
IC50 [2]: 26 ± 9 µM | SI NCTC/ L. infantum [2]: 0.5 | IC50 [3]: 15 ± 1 µM | IC50 [4]: 18 ± 2 µM | SI NCTC/ L. braziliensis [4]: 1

CCCCCCCCCCCCCCCCOP(=O)([O-])OCC[N+](C)(C)C [Miltefosine, reference compound]
IC50 [1, 5]: 8 ± 1 µM | SI J774.1/ T. cruzi [1]: 6 | IC50 ([2]; Leishmania infantum): 0.9 ± 0.2 µM | SI NCTC/ L. infantum [2]: 56 | IC50 ([3]; Mus musculus): 50 ± 7 µM | IC50 ([4]; Leishmania braziliensis): 0.9 ± 0.2 µM

C=CCn1c(-c2ccc(Cl)cc2)cs\c1=N/N=C/C(C)=C/c1ccco1 [GAT0513]
IC50 [1, 5]: 0.09 ± 0.02 µM | Trypanocidal activity on T. cruzi in words [1]: active against T. cruzi | SI J774.1/ T. cruzi [1]: 611 | IC50 (NCTC929 fibroblasts): 1440 ± 30 µM | IC50 ([2]; Leishmania infantum): 58 ± 12 µM | SI NCTC/ L. infantum [2]: 25 | IC50 ([3]; Mus musculus): 55 ± 5 µM | IC50 ([4]; Leishmania braziliensis): 33 ± 11 µM | SI NCTC/ L. braziliensis [4]: 44 | melting point: 228 °C (dec.)

C=CCn1c(C(=O)CNN2CCN(CC=Cc3ccccc3)CC2)cs/c1=N/N=C\C=C\c1ccco1 [GAT0613, 1-((Z)-3-allyl-2-((E)-((E)-3-(furan-2-yl)allylidene)hydrazono)-2,3-dihydrothiazol-4-yl)-2-((4-cinnamylpiperazin-1-yl)amino)ethanone]
IC50 [1, 5]: 11 ± 4 µM | Trypanocidal activity on T. cruzi in words [1]: the activity was lost | IC50 ([2]; Leishmania infantum): > 25 µM | IC50 ([4]; Leishmania braziliensis): 25 µM | melting point: 150 to 153 °C

C(=Cc1ccccc1)CN1CCN(/N=C/C=C/c2ccco2)CC1 [GAT0913b, (E)-4-cinnamyl-N-((E)-3-(furan-2-yl)allylidene)piperazin-1-amine]
IC50 [1, 6]: > 25 µM | IC50 [1, 5]: > 25 µM | Trypanocidal activity on T. cruzi in words [1]: the activity was lost | SI J774.1/ T. cruzi [1]: 1 | IC50 (NCTC929 fibroblasts): 160 ± 7 µM | IC50 ([2]; Leishmania infantum): 21 ± 2 µM | SI NCTC/ L. infantum [2]: 8 | IC50 ([3]; Mus musculus): 25 ± 3 µM | IC50 ([4]; Leishmania braziliensis): 18 ± 5 µM | SI NCTC/ L. braziliensis [4]: 9

C=CCn1c(C(=O)CN2CCN(CC=Cc3ccccc3)CC2)cs/c1=N/N=C\C=C\c1ccco1 [GATk6, 1-((Z)-3-allyl-2-((E)-((E)-3-(furan-2-yl)allylidene)hydrazono)-2,3-dihydrothiazol-4-yl)-2-(4-cinnamylpiperazin-1-yl)ethanone]
IC50 [1, 6]: < 5 µM | IC50 [1, 5]: 1.2 ± 0.3 µM | IC50 ([2]; Leishmania infantum): > 25 µM | IC50 ([4]; Leishmania braziliensis): > 25 µM | melting point: 140 to 142 °C

Cc1ccc(/C=C/C=C/C(/C=C/C=C/c2ccc(C)o2)=NN2CCN(CC=Cc3ccccc3)CC2)o1 [GAT1113, N-((1E,3E,6E,8E)-1,9-bis(5-methylfuran-2-yl)nona-1,3,6,8-tetraen-5-ylidene)-4-cinnamylpiperazin-1-amine]
IC50 [1, 6]: < 5 µM | IC50 [1, 5]: 1.6 ± 0.3 µM | SI J774.1/ T. cruzi [1]: 28 | IC50 (NCTC929 fibroblasts): 165 ± 5 µM | IC50 ([2]; Leishmania infantum): 14 ± 2 µM | SI NCTC/ L. infantum [2]: 12 | IC50 ([3]; Mus musculus): 45 ± 5 µM | IC50 ([4]; Leishmania braziliensis): 16 ± 4 µM | SI NCTC/ L. braziliensis [4]: 10 | melting point: 148 to 150 °C

O=C(Cn1ccnc1[N+](=O)[O-])NCc1ccccc1 [Benznidazole, reference compound]
IC50 [1, 5]: 7 ± 1 µM | SI J774.1/ T. cruzi [1]: 57 | IC50 ([3]; Mus musculus): 400 ± 4 µM | LD50 without chorion (zebrafish embryos): > 1000 µM | LD50 with chorion (zebrafish embryos): > 1000 µM

CC(=O)N1CCN(c2ccc(OCC3COC(Cn4ccnc4)(c4ccc(Cl)cc4Cl)O3)cc2)CC1 (centres unmarked) [Ketoconazole, reference compound]
LD50 without chorion (zebrafish embryos): 12 ± 3 µM | LD50 with chorion (zebrafish embryos): > 25 µM

Clc1ccc(-c2csc(N/N=C/C=C/c3ccco3)n2)cc1 [GAT2212B]
IC50 [1, 5]: 1.2 ± 0.3 µM | IC50 ([2]; Leishmania infantum): 25 µM | IC50 ([4]; Leishmania braziliensis): > 25 µM | melting point: 212 °C (dec.)
